Measured values as given in patent US6531598B1, “Naphthostyrils” (Hoffmann-La Roche Inc., priority 2001, dated 2003).
Where a name gives a salt, the structure may show the parent alone.

Experiments:
human Cyclin E/CDK2 = biological target: T1, human Cyclin E/CDK2 (Homo sapiens, UniProt P24941); assay: CDK2 FlashPlate Assay; assay type: biochemical; conditions: inhibition of Rb phosphorylation, 33P-ATP, 25 minutes at room temperature
T1 construct: made in house; host or cells: insect cells
Procedure: To determine inhibition of CDK2 activity, purified recombinant retinoblastoma (Rb) protein was coated on 96 well FlashPlates (New England Nuclear, Boston, Mass.). […] Recombinant active human Cyclin E/CDK2 complexes were partially purified from extracts of insect cells. […] Plates were incubated for 25 minutes at room temperature with shaking, then washed and counted in the Topcount scintillation counter (Packard Instrument Co., Downers Grove, Ill.). Dilutions of test compounds were tested in duplicate in each assay. The percent inhibition of Rb phosphorylation, which is a measure of the inhibition of CDK2 activity, was determined according to the following formula: [formula]
where “test compound” refers to the average counts per minute of the test duplicates, “nonspecific” refers to the average counts per minute when no Cyclin E/CDK2 was added, and “total” refers to the average counts per minute when no compound was added.

[1] = test system: MDA-MB435 breast carcinoma cell line; assay: Tetrazolium dye proliferation assay, MDA-MB435; assay type: cell-based; conditions: Homo sapiens, MDA-MB-435, 120 h; MTT, 5 days post addition of test compound, 2000 cells per well
Procedure: (§1) The cell lines used were MDA-MB435, a breast carcinoma dell line and RKO, a colon carcinoma cell line.
(§2) Teh estrogen receptor negative epithelial breast carcinoma line (MDA-MB435) was purchased from American Type Cell Culture Collection (ATCC; Rockville, Md.) and was grown in the medium recommended by ATCC. For analysis of the test compounds on growth of these cells, the cells were plated at 2000 cells per well in a 96-well tissue culture plate, and were incubated overnight at 37° C. with 5% CO2. The next day, the test compounds were dissolved in 100% dimethyl sulfoxide (DMSO) to yield a 10 mM stock solution. […] The compounds were then serially diluted in medium with 1.2% DMSO. One-fourth final volume of the diluted compounds was transferred to 96 well plates. Test compounds were assayed in duplicate. DMSO was added to a row of “control cells” such that the final concentration of DMSO in each well was 0.3%. Wells to which no cells were added served as the “blank.” Wells to which no inhibitor was added served as “no inhibitor control”. The plates were returned to the incubator, and 5 days post addition of test compound, were analyzed as described below.
(§3) 3-(4,5-Dimethylthiazole-2-yl)-2,5-diphenyl-2H-tetrazolium bromide (thiazolyl blue; MTT) was added to each well to yield a final concentration of 1 mglmL. The plates were then incubated at 37° C. for 3 hours. The plates were centrifuged at 1000 rpm for 5 minutes prior to aspiration of the MTT-containing medium. The MTT-containing medium was then removed and 100 μL 100% EtOH was added to each well to dissolve the resulting formazan metabolite. To ensure complete dissolution, plates were shaken for 15 minutes at room temperature. Absorbencies were read in a microliter plate reader (Molecular Dynamics) at a wavelength of 570 nm with a 650 nm reference. Percent inhibition was calculated by subtracting the absorbency of the blank (no cell) wells from all wells, then subtracting the division of the average absorbency of each test duplicate by the average of the controls from 1.00. Inhibitory concentrations (IC50) were determined from the linear regression of a plot of the logarithm of the concentration versus the percent inhibition.

[2] = test system: RKO colon carcinoma cell line; assay: Tetrazolium dye proliferation assay, RKO; assay type: cell-based; conditions: Colon carcinoma cell, 120 h; MTT, 5 days post addition of test compound, 500 cell per well
Procedure: as §1, §2, §3
The colon carcinoma line RKO was also obtained from the ATCC and was tested according to the same protocol provided above except that the cell line RKO was plated at 500 cell per well.

Measured: IC50

Cc1c[nH]c(-c2cc(SCCN)c3c(F)ccc4c3c2C(=O)N4)c1C [Example 50, 5-(2-Amino-ethylsulfanyl)-6-fluoro-3-(3,4-dimethyl-1H-pyrrol-2-yl)-1H-benzo[cd]indol-2-one trifluoroacetic acid salt]
≤ 10 µM: all assays above
